Active and inactive are the calls of the source. The calls are words filed in the database; no cut-off is given here.
Target: T1, Interstitial collagenase (Homo sapiens, UniProt P03956)
T1 sequence (P03956 whole entry): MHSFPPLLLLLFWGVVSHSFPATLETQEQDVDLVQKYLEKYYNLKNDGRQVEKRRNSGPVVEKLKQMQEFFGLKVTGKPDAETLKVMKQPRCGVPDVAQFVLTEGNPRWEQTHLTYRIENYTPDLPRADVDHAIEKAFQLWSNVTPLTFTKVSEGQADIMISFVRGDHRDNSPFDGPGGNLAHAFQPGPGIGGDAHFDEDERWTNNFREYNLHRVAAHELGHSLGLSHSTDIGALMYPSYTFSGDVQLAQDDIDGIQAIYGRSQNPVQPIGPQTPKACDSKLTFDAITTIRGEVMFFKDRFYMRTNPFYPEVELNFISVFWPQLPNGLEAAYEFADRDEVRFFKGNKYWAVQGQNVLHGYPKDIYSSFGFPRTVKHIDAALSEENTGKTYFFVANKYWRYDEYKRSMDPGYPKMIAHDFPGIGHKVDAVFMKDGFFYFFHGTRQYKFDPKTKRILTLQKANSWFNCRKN
Details: not given

Compared with `O=S(=O)(CC1CS1)c1ccc(Oc2ccc(CO)cc2)cc1` (racemic), `O=S(=O)(CC1CS1)c1ccc(Oc2ccc(O)cc2)cc1` (racemic) is 1.6-fold lower in Ki: 205000 nM for the first, 128000 nM for the second. The second binds more tightly here.

Target: T2, Stromelysin-1 (Homo sapiens, UniProt P08254)
Experiment: Competitive inhibition of human MMP3 using fluorogenic substrate at 20 uM by Dixon plot analysis
Details: not given
Target sequence in this assay (P08254 100-477 limits assumed): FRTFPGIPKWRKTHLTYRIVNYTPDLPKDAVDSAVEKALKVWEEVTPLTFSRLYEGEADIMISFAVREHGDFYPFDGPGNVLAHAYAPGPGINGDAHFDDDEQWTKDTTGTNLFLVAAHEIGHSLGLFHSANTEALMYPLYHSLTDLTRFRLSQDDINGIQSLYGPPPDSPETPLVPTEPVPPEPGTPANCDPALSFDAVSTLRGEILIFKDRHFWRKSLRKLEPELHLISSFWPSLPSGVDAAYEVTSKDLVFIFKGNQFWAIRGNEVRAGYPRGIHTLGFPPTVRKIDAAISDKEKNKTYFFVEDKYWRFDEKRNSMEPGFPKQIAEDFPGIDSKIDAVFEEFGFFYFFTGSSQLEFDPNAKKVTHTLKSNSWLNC

Going from `O=S(=O)(CC1CS1)c1ccc(Oc2ccc(OC(F)(F)F)cc2)cc1` (racemic) to `O=S(=O)(CC1CS1)c1ccc(Oc2ccc(F)cc2)cc1` (racemic), the inhibition rises from 14% to 50%.

Test system: Liver
Experiment: Half life in rat liver S9 fraction at 10 uM by UPLC analysis
Format: ADME, subcellular
Details: s9, 10 µM

Compared with `CS(=O)(=O)Oc1ccc(Oc2ccc(S(=O)(=O)CC3CS3)cc2)cc1` (racemic), `COCOc1ccc(Oc2ccc(S(=O)(=O)CC3CS3)cc2)cc1` (racemic) is 3.5-fold lower in t1/2: 27 min for the first, 7.7 min for the second.

Compared with `O=S(=O)(CC1CS1)c1ccc(Oc2ccc(OC(F)(F)F)cc2)cc1` (racemic), `O=S(=O)(CC1CS1)c1ccc(Oc2ccc(F)cc2)cc1` (racemic) is 2-fold lower in t1/2: 7.3 min for the first, 3.7 min for the second.

First: O=S(=O)(CC1CS1)c1ccc(Oc2ccc(I)cc2)cc1 (racemic)
Second: O=S(=O)(CC1CS1)c1ccc(Oc2ccc(O)cc2)cc1 (racemic)
The t1/2 of the first is 3.2-fold lower: 7.2 min for the first, 23 min for the second.

First: O=S(=O)(CC1CS1)c1ccc(Oc2cccc(F)c2)cc1 (racemic)
Second: O=S(=O)(CC1CS1)c1ccc(Oc2ccccc2)cc1 (stereo not given)
The t1/2 of the first is 1.5-fold lower: 2.9 min for the first, 4.4 min for the second.

With `O=S(=O)(CC1CS1)c1ccc(Oc2ccc(CO)cc2)cc1` (racemic) the t1/2 was 13 min.

Target: T3, Matrilysin (Homo sapiens, UniProt P09237)
T3 sequence (P09237 whole entry): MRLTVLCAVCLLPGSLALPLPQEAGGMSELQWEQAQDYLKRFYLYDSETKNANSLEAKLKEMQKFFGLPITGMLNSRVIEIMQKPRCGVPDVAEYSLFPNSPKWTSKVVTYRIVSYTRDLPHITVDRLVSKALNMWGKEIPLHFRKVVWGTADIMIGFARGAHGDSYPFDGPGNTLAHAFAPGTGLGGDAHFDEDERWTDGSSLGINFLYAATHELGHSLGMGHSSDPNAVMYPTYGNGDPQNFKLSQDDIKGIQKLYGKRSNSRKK
Details: not given

Compared with `O=S(=O)(CC1CS1)c1ccc(Oc2ccc(CO)cc2)cc1` (racemic), `O=S(=O)(CC1CS1)c1ccc(Oc2ccc(O)cc2)cc1` (racemic) is 1.6-fold lower in Ki: 48500 nM for the first, 31000 nM for the second.

Target: T4, Matrilysin (Homo sapiens) (UniProt P09237)
T4 sequence (whole entry): T3 sequence (P09237 whole entry)
Experiment: Competitive inhibition of human MMP7 using fluorogenic substrate at 75 uM by Dixon plot analysis
Details: not given

`COCOc1ccc(Oc2ccc(S(=O)(=O)CC3CS3)cc2)cc1` (racemic) was tested, and the inhibition was 19%.

Test system: Liver microsomes
Experiment: Drug metabolism in rat liver microsomes assessed as 4-(4-(thiiran-2-ylmethylsulfonyl)phenoxy)benzoic acid formation at 50 uM after 15 mins by tandem MS analysis
Format: ADME, Microsome
Details: 0.25 h

With `O=S(=O)(CC1CS1)c1ccc(Oc2ccc(CO)cc2)cc1` (racemic) the Drug metabolism was “Active”.

Target: 72 kDa type IV collagenase (Homo sapiens, UniProt P08253)
Details: not given

Chain of 72 kDa type IV collagenase (P08253 whole entry): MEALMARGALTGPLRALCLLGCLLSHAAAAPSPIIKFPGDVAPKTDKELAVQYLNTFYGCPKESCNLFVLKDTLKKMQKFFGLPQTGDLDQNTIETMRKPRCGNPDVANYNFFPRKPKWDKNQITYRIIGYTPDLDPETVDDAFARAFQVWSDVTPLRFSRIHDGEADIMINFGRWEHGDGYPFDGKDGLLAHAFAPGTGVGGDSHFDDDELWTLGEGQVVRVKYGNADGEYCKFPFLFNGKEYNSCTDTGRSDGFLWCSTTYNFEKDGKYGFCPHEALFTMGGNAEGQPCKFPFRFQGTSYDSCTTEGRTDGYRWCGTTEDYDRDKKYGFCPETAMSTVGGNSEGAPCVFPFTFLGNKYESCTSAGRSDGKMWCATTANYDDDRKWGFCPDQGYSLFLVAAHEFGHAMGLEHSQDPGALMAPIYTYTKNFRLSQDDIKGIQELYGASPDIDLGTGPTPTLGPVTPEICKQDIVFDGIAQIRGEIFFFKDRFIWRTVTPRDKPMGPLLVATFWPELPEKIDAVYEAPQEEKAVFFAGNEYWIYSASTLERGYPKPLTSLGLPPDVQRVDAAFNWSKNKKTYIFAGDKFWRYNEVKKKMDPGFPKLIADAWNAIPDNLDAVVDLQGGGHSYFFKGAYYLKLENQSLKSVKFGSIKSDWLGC

First: O=S(=O)(CC1CS1)c1ccc(Oc2ccc(OC(F)(F)F)cc2)cc1 (racemic)
Second: O=S(=O)(CC1CS1)c1ccc(Oc2ccc(F)cc2)cc1 (racemic)
The Ki of the first is 1.8-fold higher: 110 nM for the first, 61 nM for the second. The second binds more tightly here.

Compared with `CC(C)Oc1ccc(Oc2ccc(S(=O)(=O)CC3CS3)cc2)cc1` (racemic), `COCOc1ccc(Oc2ccc(S(=O)(=O)CC3CS3)cc2)cc1` (racemic) is 1.7-fold lower in Ki: 300 nM for the first, 180 nM for the second. The second binds more tightly here.

Going from `O=S(=O)(CC1CS1)c1ccc(Oc2ccc(I)cc2)cc1` (racemic) to `O=S(=O)(CC1CS1)c1ccc(Oc2ccc(O)cc2)cc1` (racemic), the Ki falls from 600 nM to 6 nM (100-fold).

Compared with `O=S(=O)(CC1CS1)c1ccc(Oc2cccc(F)c2)cc1` (racemic), `O=S(=O)(CC1CS1)c1ccc(Oc2ccc(CO)cc2)cc1` (racemic) is 5.8-fold lower in Ki: 450 nM for the first, 78 nM for the second. The second binds more tightly here.

Test system: Liver microsomes
Experiment: Drug metabolism in rat liver microsomes assessed as 4-(4-(thiiran-2-ylmethylsulfonyl)phenoxy)benzaldehyde formation at 50 uM after 15 mins by tandem MS analysis
Format: ADME, Microsome
Details: 0.25 h

With `O=S(=O)(CC1CS1)c1ccc(Oc2ccc(CO)cc2)cc1` (racemic) the Drug metabolism was “Active”.

Target: Matrix metalloproteinase-14 (Homo sapiens, UniProt P50281)
Details: not given

First: O=S(=O)(CC1CS1)c1ccc(Oc2ccc(OC(F)(F)F)cc2)cc1 (racemic)
Second: O=S(=O)(CC1CS1)c1ccc(Oc2ccc(F)cc2)cc1 (racemic)
The Ki of the first is 8.8-fold higher: 5080 nM for the first, 580 nM for the second. The second binds more tightly here.

First: CC(C)Oc1ccc(Oc2ccc(S(=O)(=O)CC3CS3)cc2)cc1 (racemic)
Second: COCOc1ccc(Oc2ccc(S(=O)(=O)CC3CS3)cc2)cc1 (racemic)
The Ki of the first is 2-fold higher: 280 nM for the first, 140 nM for the second. The second binds more tightly here.

Compared with `O=S(=O)(CC1CS1)c1ccc(Oc2cccc(F)c2)cc1` (racemic), `O=S(=O)(CC1CS1)c1ccc(Oc2ccccc2)cc1` (stereo not given) is 5.1-fold lower in Ki: 190 nM for the first, 37 nM for the second. The second binds more tightly here.

Compared with `O=S(=O)(CC1CS1)c1ccc(Oc2ccc(CO)cc2)cc1` (racemic), `O=S(=O)(CC1CS1)c1ccc(Oc2ccc(O)cc2)cc1` (racemic) is 2.4-fold lower in Ki: 215 nM for the first, 90 nM for the second. The second binds more tightly here.

Target: T5, Interstitial collagenase (Homo sapiens) (UniProt P03956)
T5 sequence (whole entry): T1 sequence (P03956 whole entry)
Experiment: Competitive inhibition of human MMP1 using fluorogenic substrate at 60 uM by Dixon plot analysis
Details: not given

For `O=S(=O)(CC1CS1)c1ccc(Oc2ccc(I)cc2)cc1` (racemic), the inhibition was “inactive”.

Target: T2, Stromelysin-1
Experiment: Competitive inhibition of human MMP3 using fluorogenic substrate at 60 uM by Dixon plot analysis
Details: not given
Target sequence in this assay (P08254 100-477 limits assumed): as the sequence (P08254 100-477 limits assumed) above

`O=S(=O)(CC1CS1)c1ccc(Oc2ccc(I)cc2)cc1` (racemic) gave an inhibition of 18%.

Test system: Liver microsomes
Experiment: Drug metabolism in rat liver microsomes assessed as 4-(4-(hydroxymethyl)phenoxy)benzenesulfinic acid formation at 50 uM after 15 mins by tandem MS analysis
Format: ADME, Microsome
Details: 0.25 h

With `O=S(=O)(CC1CS1)c1ccc(Oc2ccc(CO)cc2)cc1` (racemic) the Drug metabolism was “Active”.

Target: T5, Interstitial collagenase (Homo sapiens)
Experiment: Competitive inhibition of human MMP1 using fluorogenic substrate at 20 uM by Dixon plot analysis
Details: not given

In the case of `O=S(=O)(CC1CS1)c1ccc(Oc2ccc(OC(F)(F)F)cc2)cc1` (racemic), the inhibition is reported as 3%.

In the case of `O=S(=O)(CC1CS1)c1ccc(Oc2ccc(F)cc2)cc1` (racemic), the inhibition is reported as “inactive”.

Target: Matrix metalloproteinase-9 (Homo sapiens, UniProt P14780)
Details: not given

Chain of Matrix metalloproteinase-9 (P14780 whole entry): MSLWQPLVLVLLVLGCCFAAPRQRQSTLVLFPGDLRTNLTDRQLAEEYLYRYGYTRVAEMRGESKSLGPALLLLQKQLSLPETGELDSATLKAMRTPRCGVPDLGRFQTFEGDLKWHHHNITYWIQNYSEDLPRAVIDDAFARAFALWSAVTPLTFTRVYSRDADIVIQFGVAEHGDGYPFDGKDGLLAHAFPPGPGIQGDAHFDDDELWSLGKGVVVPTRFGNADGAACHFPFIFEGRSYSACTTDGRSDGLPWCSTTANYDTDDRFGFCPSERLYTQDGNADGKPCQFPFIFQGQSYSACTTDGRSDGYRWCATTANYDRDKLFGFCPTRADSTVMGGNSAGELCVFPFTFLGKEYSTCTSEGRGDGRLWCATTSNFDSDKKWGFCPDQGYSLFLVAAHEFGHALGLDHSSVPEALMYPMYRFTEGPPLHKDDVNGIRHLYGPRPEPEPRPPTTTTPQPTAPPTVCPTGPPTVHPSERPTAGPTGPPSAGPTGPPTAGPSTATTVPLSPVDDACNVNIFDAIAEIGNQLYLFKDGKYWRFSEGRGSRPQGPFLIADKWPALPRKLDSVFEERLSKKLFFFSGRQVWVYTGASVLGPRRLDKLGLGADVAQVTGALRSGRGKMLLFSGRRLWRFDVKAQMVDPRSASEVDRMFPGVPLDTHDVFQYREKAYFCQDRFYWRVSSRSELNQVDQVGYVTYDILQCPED

Compared with `O=S(=O)(CC1CS1)c1ccc(Oc2ccc(OC(F)(F)F)cc2)cc1` (racemic), `O=S(=O)(CC1CS1)c1ccc(Oc2ccc(F)cc2)cc1` (racemic) is 21-fold lower in Ki: 930 nM for the first, 44 nM for the second. The second binds more tightly here.

Compared with `CC(C)Oc1ccc(Oc2ccc(S(=O)(=O)CC3CS3)cc2)cc1` (racemic), `COCOc1ccc(Oc2ccc(S(=O)(=O)CC3CS3)cc2)cc1` (racemic) is 2.9-fold lower in Ki: 470 nM for the first, 160 nM for the second.

`O=S(=O)(CC1CS1)c1ccc(Oc2ccc(I)cc2)cc1` (racemic) and `O=S(=O)(CC1CS1)c1ccc(Oc2ccc(CO)cc2)cc1` (racemic) are within 1.5-fold of each other in Ki: 290 nM for the first, 390 nM for the second.

For `O=S(=O)(CC1CS1)c1ccc(Oc2cccc(F)c2)cc1` (racemic), the Ki was 3000 nM.

Target: T2, Stromelysin-1
Details: not given
Target sequence in this assay (P08254 whole entry): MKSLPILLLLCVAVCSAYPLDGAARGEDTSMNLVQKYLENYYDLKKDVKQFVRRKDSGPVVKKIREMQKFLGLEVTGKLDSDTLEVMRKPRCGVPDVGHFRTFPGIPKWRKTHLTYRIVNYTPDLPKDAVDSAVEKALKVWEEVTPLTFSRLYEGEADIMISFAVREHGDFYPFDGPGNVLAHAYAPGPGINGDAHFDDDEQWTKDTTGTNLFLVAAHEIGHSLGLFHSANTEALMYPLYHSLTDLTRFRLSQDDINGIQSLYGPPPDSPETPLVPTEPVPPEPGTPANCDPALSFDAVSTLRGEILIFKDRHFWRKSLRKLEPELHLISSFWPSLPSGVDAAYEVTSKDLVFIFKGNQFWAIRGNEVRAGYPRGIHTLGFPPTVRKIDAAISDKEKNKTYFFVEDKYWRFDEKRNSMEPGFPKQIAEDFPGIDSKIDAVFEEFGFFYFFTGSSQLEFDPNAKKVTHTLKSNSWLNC

Going from `CS(=O)(=O)Oc1ccc(Oc2ccc(S(=O)(=O)CC3CS3)cc2)cc1` (racemic) to `CC(C)Oc1ccc(Oc2ccc(S(=O)(=O)CC3CS3)cc2)cc1` (racemic), the Ki rises from 575 nM to 17000 nM (30-fold). The first binds more tightly here.

First: COCOc1ccc(Oc2ccc(S(=O)(=O)CC3CS3)cc2)cc1 (racemic)
Second: O=S(=O)(CC1CS1)c1ccc(Oc2ccc(O)cc2)cc1 (racemic)
The Ki of the first is 5.5-fold higher: 12000 nM for the first, 2200 nM for the second.

Going from `O=S(=O)(CC1CS1)c1ccc(Oc2cccc(F)c2)cc1` (racemic) to `O=S(=O)(CC1CS1)c1ccc(Oc2ccc(CO)cc2)cc1` (racemic), the Ki falls from 27000 nM to 4100 nM (6.6-fold). The second binds more tightly here.

Target: T5, Interstitial collagenase (Homo sapiens)
Experiment: Competitive inhibition of human MMP1 using fluorogenic substrate at 50 uM by Dixon plot analysis
Details: not given

Compound `CC(C)Oc1ccc(Oc2ccc(S(=O)(=O)CC3CS3)cc2)cc1` (racemic) has an inhibition of 11%.

Target: T4, Matrilysin (Homo sapiens)
Experiment: Competitive inhibition of human MMP7 using fluorogenic substrate at 125 uM by Dixon plot analysis
Details: not given

`O=S(=O)(CC1CS1)c1ccc(Oc2cccc(F)c2)cc1` (racemic) was tested, and the inhibition was “inactive”.

Target: T4, Matrilysin (Homo sapiens)
Experiment: Competitive inhibition of human MMP7 using fluorogenic substrate at 10 uM by Dixon plot analysis
Details: not given

For `O=S(=O)(CC1CS1)c1ccc(Oc2ccc(I)cc2)cc1` (racemic), the inhibition was “inactive”.

Target: T4, Matrilysin (Homo sapiens)
Experiment: Competitive inhibition of human MMP7 using fluorogenic substrate at 20 uM by Dixon plot analysis
Details: not given

With `O=S(=O)(CC1CS1)c1ccc(Oc2ccc(OC(F)(F)F)cc2)cc1` (racemic) the inhibition was “inactive”.

Compared with `CC(C)Oc1ccc(Oc2ccc(S(=O)(=O)CC3CS3)cc2)cc1` (racemic), `O=S(=O)(CC1CS1)c1ccc(Oc2ccc(F)cc2)cc1` (racemic) is lower in inhibition: 30% for the first, 9% for the second.

Target: T5, Interstitial collagenase (Homo sapiens)
Experiment: Competitive inhibition of human MMP1 using fluorogenic substrate at 100 uM by Dixon plot analysis
Details: not given

Going from `COCOc1ccc(Oc2ccc(S(=O)(=O)CC3CS3)cc2)cc1` (racemic) to `O=S(=O)(CC1CS1)c1ccc(Oc2cccc(F)c2)cc1` (racemic), the inhibition rises from 6% to 7%.
